Data published in ChEMBL document CHEMBL5705888, “Substrate specificity and inhibitors of LRRK2, a protein kinase mutated in Parkinson's disease” (Biochem J, 2009).

How the values were obtained:
[1] = biological target: Leucine-rich repeat serine/threonine-protein kinase 2 (Homo sapiens, UniProt Q5S007, G2019S); assay: Inhibition of GST-tagged LRRK2 G2019S mutant (1326 to 2527 residues) (unknown origin) using peptide as substrate incubated for 15 mins in presence of ATP by immunoblotting analysis
[2] = biological target: Leucine-rich repeat serine/threonine-protein kinase 2 (Homo sapiens, UniProt Q5S007); assay: Inhibition of GST-tagged LRRK2 (1326 to 2527 residues) (unknown origin) using peptide as substrate incubated for 15 mins in presence of ATP by immunoblotting analysis
[3] = biological target: Rho-associated protein kinase 2 (Homo sapiens, UniProt O75116); assay: Inhibition of His6-tagged ROCK2 (2 to 543 residues) (unknown origin) using peptide as substrate incubated for 15 mins in presence of ATP by immunoblotting analysis
Sequence of Rho-associated protein kinase 2 (O75116 whole entry, the tested form may be a part): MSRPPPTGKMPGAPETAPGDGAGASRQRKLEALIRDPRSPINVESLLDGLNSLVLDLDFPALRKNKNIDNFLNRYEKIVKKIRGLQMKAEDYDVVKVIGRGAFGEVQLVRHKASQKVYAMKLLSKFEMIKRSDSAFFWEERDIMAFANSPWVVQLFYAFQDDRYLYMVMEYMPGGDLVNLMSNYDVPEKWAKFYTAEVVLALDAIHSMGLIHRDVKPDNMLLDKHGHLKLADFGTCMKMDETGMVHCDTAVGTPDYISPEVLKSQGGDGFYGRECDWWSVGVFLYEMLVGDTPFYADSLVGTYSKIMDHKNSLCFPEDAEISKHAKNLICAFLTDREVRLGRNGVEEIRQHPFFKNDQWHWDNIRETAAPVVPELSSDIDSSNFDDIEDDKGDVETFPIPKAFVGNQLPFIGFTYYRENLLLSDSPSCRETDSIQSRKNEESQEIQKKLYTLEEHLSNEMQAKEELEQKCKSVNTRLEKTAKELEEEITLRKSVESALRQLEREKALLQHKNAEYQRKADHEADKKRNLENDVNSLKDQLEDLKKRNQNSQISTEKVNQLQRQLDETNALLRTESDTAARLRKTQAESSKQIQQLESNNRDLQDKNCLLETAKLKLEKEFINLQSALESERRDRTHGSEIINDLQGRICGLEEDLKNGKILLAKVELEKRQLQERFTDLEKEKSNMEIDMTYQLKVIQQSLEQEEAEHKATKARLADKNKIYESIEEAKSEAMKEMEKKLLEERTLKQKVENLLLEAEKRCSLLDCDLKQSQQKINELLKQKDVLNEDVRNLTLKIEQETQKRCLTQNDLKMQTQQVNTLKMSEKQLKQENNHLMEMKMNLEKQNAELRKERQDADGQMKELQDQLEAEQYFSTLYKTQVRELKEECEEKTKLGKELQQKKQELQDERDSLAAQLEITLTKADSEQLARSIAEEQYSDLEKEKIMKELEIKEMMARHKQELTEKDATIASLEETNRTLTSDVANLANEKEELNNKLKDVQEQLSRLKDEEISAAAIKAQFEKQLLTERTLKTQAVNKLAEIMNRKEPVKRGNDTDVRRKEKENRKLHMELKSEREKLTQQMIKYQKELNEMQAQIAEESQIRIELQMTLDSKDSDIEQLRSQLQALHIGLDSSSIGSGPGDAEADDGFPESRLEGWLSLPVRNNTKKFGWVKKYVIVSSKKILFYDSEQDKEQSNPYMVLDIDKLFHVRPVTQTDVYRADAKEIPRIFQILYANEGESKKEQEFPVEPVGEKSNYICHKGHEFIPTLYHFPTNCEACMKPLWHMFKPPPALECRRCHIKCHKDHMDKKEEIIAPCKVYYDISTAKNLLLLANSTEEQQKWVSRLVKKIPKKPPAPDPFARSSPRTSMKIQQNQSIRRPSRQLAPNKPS

Sequence of Leucine-rich repeat serine/threonine-protein kinase 2 (Homo sapiens, UniProt Q5S007, G2019S) (Q5S007 whole entry G2019S, the tested form may be a part): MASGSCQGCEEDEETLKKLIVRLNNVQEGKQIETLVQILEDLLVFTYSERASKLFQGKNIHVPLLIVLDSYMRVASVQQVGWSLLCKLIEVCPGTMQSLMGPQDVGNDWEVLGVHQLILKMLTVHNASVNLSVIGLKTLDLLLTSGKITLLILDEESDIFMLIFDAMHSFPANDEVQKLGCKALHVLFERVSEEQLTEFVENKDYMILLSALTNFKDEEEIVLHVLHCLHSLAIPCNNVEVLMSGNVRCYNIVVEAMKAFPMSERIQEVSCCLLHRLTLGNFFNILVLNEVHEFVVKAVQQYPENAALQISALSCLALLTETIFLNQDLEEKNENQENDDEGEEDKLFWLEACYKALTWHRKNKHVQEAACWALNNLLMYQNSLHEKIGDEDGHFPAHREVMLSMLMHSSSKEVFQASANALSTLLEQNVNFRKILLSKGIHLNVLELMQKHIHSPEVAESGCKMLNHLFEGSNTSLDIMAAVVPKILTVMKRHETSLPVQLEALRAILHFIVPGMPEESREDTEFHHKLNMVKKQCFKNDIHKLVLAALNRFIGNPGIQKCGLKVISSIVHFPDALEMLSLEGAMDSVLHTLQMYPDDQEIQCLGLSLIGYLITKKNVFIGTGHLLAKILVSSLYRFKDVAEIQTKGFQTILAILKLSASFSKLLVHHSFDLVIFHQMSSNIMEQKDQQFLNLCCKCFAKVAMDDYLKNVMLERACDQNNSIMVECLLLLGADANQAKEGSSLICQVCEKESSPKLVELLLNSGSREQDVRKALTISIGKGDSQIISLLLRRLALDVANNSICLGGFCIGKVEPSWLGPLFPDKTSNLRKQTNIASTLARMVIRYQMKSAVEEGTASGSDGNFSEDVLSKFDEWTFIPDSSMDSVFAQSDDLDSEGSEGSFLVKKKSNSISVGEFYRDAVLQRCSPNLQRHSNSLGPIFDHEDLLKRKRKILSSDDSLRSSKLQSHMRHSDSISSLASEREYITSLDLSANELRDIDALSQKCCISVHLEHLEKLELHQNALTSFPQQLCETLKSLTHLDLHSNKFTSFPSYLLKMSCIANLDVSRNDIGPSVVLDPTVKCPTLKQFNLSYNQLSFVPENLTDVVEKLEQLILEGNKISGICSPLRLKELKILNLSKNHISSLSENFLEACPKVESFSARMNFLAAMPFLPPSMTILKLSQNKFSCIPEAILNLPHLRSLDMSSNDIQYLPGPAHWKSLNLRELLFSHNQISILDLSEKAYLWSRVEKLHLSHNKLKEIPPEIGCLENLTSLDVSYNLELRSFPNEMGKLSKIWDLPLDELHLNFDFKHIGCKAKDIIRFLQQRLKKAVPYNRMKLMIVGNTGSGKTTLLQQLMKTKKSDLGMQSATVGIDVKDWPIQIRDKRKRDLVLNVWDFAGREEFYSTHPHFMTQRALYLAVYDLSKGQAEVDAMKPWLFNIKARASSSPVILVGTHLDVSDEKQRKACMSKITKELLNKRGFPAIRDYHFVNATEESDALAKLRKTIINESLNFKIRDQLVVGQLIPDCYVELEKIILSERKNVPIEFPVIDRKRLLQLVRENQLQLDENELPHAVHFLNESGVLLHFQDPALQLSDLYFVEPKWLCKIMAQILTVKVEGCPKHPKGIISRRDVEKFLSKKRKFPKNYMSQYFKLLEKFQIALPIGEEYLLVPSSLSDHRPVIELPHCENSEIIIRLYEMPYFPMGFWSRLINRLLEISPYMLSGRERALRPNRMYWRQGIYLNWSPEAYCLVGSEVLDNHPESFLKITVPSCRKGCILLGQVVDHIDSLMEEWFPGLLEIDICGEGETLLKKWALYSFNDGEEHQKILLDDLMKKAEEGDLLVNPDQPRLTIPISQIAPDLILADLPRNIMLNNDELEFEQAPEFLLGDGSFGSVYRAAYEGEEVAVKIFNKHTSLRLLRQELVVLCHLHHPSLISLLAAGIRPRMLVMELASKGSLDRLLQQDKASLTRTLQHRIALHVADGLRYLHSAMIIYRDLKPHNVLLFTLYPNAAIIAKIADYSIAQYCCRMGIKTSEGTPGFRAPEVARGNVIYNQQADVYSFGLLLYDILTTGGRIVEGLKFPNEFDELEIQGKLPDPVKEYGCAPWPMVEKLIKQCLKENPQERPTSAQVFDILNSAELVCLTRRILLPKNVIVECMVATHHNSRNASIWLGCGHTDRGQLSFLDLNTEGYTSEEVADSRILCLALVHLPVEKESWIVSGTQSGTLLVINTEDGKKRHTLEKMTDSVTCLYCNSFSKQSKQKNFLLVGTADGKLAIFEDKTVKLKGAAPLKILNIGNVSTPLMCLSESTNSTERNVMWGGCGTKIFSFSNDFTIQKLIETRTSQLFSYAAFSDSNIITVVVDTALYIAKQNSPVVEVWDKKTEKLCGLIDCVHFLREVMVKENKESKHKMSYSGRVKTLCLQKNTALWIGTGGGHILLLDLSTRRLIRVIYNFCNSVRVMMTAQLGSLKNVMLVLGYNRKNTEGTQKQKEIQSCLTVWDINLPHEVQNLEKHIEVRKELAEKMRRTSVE
Sequence of Leucine-rich repeat serine/threonine-protein kinase 2 (Homo sapiens, UniProt Q5S007) (Q5S007 whole entry, the tested form may be a part): as the sequence (Q5S007 whole entry G2019S, the tested form may be a part) above, with S2019G counted along it

IC50 [1]: > 10 µM
IC50 [2]: > 10 µM
IC50 [3]: 290 nM
SMILES: O=S(=O)(NCCNC/C=C/c1ccc(Br)cc1)Nc1cccc2cnccc12
